Laboratory results from PubChem BioAssay AID1918930 (Molecular Pharmacology Branch, DTP, NCI, 2023).

System: 233499-124-R-J3-PDC complex spheroid viability, % test/control
Assay: Anticancer human tumor 233499-124-R-J3-PDC patient-derived colon adenocarcinoma cell line growth inhibition
Conditions: for IC50: curve of first compound; for viability, T/C: stronger effect = lower value
How it was run: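 Complex spheroids of tumor cells with HUVEC and human MSCs, exposed to iadademstat combined with other agents. Each agent tested in half-log steps from near clinical Cmax (else 10 microM top), DMSO ≤0.25%.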
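Note: spheroids exposed to agents for one week before readout.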

NS(=O)(=O)OCC1CC(n2ccc3c(NC4CCc5ccccc54)ncnc32)CC1O (stereo not given) + NC1CC1c1ccc(-c2cccc(O)c2)cc1
IC50 (second compound 0.1 µM): 46.8 nM | IC50 (second compound 0.316 µM): 58.5 nM | IC50 (second compound 1 µM): 42.3 nM | IC50 (second compound 3.16 µM): 52.4 nM | IC50 (second compound 10 µM): 46.4 nM | viability, T/C (second compound 0.1 µM, first compound 0.00949 µM): 92.5% | viability, T/C (second compound 0.1 µM, first compound 0.03 µM): 63.6% | viability, T/C (second compound 0.1 µM, first compound 0.0949 µM): 28.6% | viability, T/C (second compound 0.1 µM, first compound 0.3 µM): 6.14% | viability, T/C (second compound 0.1 µM, first compound 0.949 µM): 3.11% | viability, T/C (second compound 0.1 µM, first compound 3 µM): 2.93% | viability, T/C (second compound 0.316 µM, first compound 0.00949 µM): 100% | viability, T/C (second compound 0.316 µM, first compound 0.03 µM): 76.9% | viability, T/C (second compound 0.316 µM, first compound 0.0949 µM): 31.2% | viability, T/C (second compound 0.316 µM, first compound 0.3 µM): 5.03% | viability, T/C (second compound 0.316 µM, first compound 0.949 µM): 4.27% | viability, T/C (second compound 0.316 µM, first compound 3 µM): 3.91% | viability, T/C (second compound 1 µM, first compound 0.00949 µM): 92.3% | viability, T/C (second compound 1 µM, first compound 0.03 µM): 59.1% | viability, T/C (second compound 1 µM, first compound 0.0949 µM): 28.5% | viability, T/C (second compound 1 µM, first compound 0.3 µM): 9.59% | viability, T/C (second compound 1 µM, first compound 0.949 µM): 4.05% | viability, T/C (second compound 1 µM, first compound 3 µM): 3.47% | viability, T/C (second compound 3.16 µM, first compound 0.00949 µM): 90.8% | viability, T/C (second compound 3.16 µM, first compound 0.03 µM): 68.8% | viability, T/C (second compound 3.16 µM, first compound 0.0949 µM): 29.9% | viability, T/C (second compound 3.16 µM, first compound 0.3 µM): 9.96% | viability, T/C (second compound 3.16 µM, first compound 0.949 µM): 4.13% | viability, T/C (second compound 3.16 µM, first compound 3 µM): 3.43% | viability, T/C (second compound 10 µM, first compound 0.00949 µM): 84% | viability, T/C (second compound 10 µM, first compound 0.03 µM): 63.9% | viability, T/C (second compound 10 µM, first compound 0.0949 µM): 27.1% | viability, T/C (second compound 10 µM, first compound 0.3 µM): 8.93% | viability, T/C (second compound 10 µM, first compound 0.949 µM): 5.35% | viability, T/C (second compound 10 µM, first compound 3 µM): 2.93%
